molecular target: T1, human RXR (Homo sapiens, UniProt P19793); test: Test A: RXR mammalian two-hybrid luciferase assay in transfected HCT-116 cells; type: cell-based; conditions: RXR mammalian two-hybrid system, luciferase reporter, 24 hours treatment, dose-response 1x10^-9 to 0.3x10^-5 M
T1 construct: expressed in transfected cells; host or cells: HCT-116 cells
T1 sequence (P19793 1-462) 1: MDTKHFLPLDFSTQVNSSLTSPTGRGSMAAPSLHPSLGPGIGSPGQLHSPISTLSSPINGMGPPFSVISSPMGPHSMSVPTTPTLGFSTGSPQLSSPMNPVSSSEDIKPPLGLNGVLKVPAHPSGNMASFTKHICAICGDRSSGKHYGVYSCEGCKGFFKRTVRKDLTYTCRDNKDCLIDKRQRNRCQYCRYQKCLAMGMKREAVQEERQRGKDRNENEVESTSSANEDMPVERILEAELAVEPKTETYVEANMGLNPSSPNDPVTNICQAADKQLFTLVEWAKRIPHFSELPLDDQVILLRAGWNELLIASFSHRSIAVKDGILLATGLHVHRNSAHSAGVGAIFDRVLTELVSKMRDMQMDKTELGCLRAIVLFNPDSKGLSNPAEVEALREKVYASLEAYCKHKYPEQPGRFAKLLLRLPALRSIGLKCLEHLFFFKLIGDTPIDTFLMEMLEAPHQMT
T1 sequence (P19793 1-462) 2: T1 sequence (P19793 1-462) 1
Experimental: HCT-116 cells were plated overnight at 80,000 cells/well in a 24 well plate and maintained as described above. The cells were co-transfected using a human RXR binding domain (BD) vector, a human RXR activation domain (AD) vector, a luciferase reporter gene containing BD-binding sites and renilla control plasmid. Transfection was achieved via 2 μL/well of Express-IN transfection reagent which was allowed to incubate for 24 hours with the cells. […] The amount of rexinoid activity at each concentration was measured using the same luciferase assay described above, and EC50 values were derived from dose-response curves of ligand concentration versus normalized luciferase activity.

Structure (SMILES)	EC50 [nM]
Cc1cnc(/C=C/C(=O)O)cc1-c1cc2c(cc1C)C(C)(C)CCC2(C)C [Compound A42]	3.7
Cc1cc2c(cc1-c1cncc(/C=C/C(=O)O)c1)C(C)(C)CCC2(C)C [Compound A45, (E)-3-(5-(3,5,5,8,8-pentamethyl-5,6,7,8-tetrahydronaphthalen-2-yl)pyridin-3-yl)acrylic acid]	710
Cc1cc2c(cc1-c1nc(/C=C/C(=O)O)ccc1C)C(C)(C)CCC2(C)C [Compound A46, (E)-3-(5-methyl-6-(3,5,5,8,8-pentamethyl-5,6,7,8-tetrahydronaphthalen-2-yl)pyridin-2-yl)acrylic acid]	305
Cc1cc2c(cc1-n1c(C(F)(F)F)nc3cc(C(=O)O)ccc31)C(C)(C)CCC2(C)C [Compound A48]	20

test system: not given; test: not given; conditions: not given

melting point [°C]	Structure (SMILES)
231.9 to 233.1	CCN(c1ncc(C(=O)O)cn1)c1cc2c(cc1C)C(C)(C)CCC2(C)C [Compound A57, 2-(ethyl(3,5,5,8,8-pentamethyl-5,6,7,8-tetrahydronaphthalen-2-yl)amino)pyrimidine-5-carboxylic acid]
203.6 to 205.1	CCN(c1cnc(C(=O)O)cn1)c1cc2c(cc1C)C(C)(C)CCC2(C)C [Compound A59, 5-(ethyl(3,5,5,8,8-pentamethyl-5,6,7,8-tetrahydronaphthalen-2-yl)amino)pyrazine-2-carboxylic acid]
241.4 to 243.8	CCN(c1ccc(C(=O)O)c(F)c1)c1cc2c(cc1C)C(C)(C)CCC2(C)C [Compound A60, 4-(ethyl(3,5,5,8,8-pentamethyl-5,6,7,8-tetrahydronaphthalen-2-yl)amino)-2-fluorobenzoic acid]
252.4 to 256.8	CCN(c1ccc(C(=O)O)cc1)c1cc2c(cc1C)C(C)(C)CCC2(C)C [Compound A61, 4-(ethyl(3,5,5,8,8-pentamethyl-5,6,7,8-tetrahydronaphthalen-2-yl)amino)benzoic acid]

Continued, molecule first:

Structure (SMILES)	melting point [°C]
CCN(c1ccc2c(c1)C(C)(C)CCC2(C)C)c1cnc(C(=O)O)cn1 [Compound A58, 5-(ethyl(5,5,8,8-tetramethyl-5,6,7,8-tetrahydronaphthalen-2-yl)amino)pyrazine-2-carboxylic acid]	213.1 to 214.4
CCN(c1ccc(C(=O)O)c(F)c1)c1ccc2c(c1)C(C)(C)CCC2(C)C [Compound A62, 4-(ethyl(5,5,8,8-tetramethyl-5,6,7,8-tetrahydronaphthalen-2-yl)amino)-2-fluorobenzoic acid]	252.4 to 256.8
CCN(c1ccc(C(=O)O)cc1)c1ccc2c(c1)C(C)(C)CCC2(C)C [Compound A63, 4-(ethyl(5,5,8,8-tetramethyl-5,6,7,8-tetrahydronaphthalen-2-yl)amino)benzoic acid]	247.8 to 250.6
